Results as given in ChEMBL document CHEMBL2346533, “Structural effect of phenyl ring compared to thiadiazole based adamantyl-sulfonamides on carbonic anhydrase inhibition” (Bioorg Med Chem, 2013).
pKi: −log10 of the molar value.

Experiments:
Carbonic anhydrase 3 = Carbonic anhydrase 3 (Homo sapiens, UniProt P07451); assay: Inhibition of human carbonic anhydrase-3 cytosolic isoform after 15 mins by Stopped-flow CO2 hydrase assay
Carbonic anhydrase 1 = Carbonic anhydrase 1 (Homo sapiens, UniProt P00915); assay: Inhibition of human carbonic anhydrase-1 cytosolic isoform after 15 mins by Stopped-flow CO2 hydrase assay
Chain of Carbonic anhydrase 1 (P00915 whole entry, canonical isoform): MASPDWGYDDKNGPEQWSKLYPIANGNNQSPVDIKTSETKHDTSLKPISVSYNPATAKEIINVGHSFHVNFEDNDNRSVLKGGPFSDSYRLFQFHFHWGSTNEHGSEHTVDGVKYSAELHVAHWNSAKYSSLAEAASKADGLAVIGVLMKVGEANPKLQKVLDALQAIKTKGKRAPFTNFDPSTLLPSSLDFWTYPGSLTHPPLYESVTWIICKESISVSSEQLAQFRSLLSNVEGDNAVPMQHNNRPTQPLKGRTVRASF

Carbonic anhydrase 12 = Carbonic anhydrase 12 (Homo sapiens, UniProt O43570); assay: Inhibition of tumor-associated transmembrane human carbonic anhydrase-12 after 15 mins by Stopped-flow CO2 hydrase assay
Chain of Carbonic anhydrase 12 (O43570 whole entry): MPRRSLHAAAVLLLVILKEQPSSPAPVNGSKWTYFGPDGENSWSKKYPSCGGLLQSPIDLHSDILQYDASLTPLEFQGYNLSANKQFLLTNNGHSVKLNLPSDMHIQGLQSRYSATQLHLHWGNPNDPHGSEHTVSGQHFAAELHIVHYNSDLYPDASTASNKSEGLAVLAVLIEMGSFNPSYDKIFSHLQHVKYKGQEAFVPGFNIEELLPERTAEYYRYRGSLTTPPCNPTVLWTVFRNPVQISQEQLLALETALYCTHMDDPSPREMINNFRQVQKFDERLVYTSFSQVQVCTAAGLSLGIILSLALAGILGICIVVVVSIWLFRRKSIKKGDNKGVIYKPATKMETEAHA

Carbonic anhydrase 9 = Carbonic anhydrase 9 (Homo sapiens, UniProt Q16790); assay: Inhibition of tumor-associated transmembrane human carbonic anhydrase-9 after 15 mins by Stopped-flow CO2 hydrase assay

Chain of Carbonic anhydrase 3 (P07451 whole entry, canonical isoform): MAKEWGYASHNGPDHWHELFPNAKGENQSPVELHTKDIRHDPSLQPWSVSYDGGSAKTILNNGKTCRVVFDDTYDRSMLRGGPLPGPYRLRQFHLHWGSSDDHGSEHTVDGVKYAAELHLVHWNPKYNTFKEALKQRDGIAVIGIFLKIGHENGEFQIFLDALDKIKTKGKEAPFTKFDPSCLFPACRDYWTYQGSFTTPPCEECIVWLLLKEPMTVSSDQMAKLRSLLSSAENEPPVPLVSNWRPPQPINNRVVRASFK

Row | Compound | pKi (Carbonic anhydrase 3) | pKi (Carbonic anhydrase 1) | pKi (Carbonic anhydrase 12) | pKi (Carbonic anhydrase 9)
1 | NS(=O)(=O)c1nnc(NC(=O)C23CC4CC(CC(C4)C2)C3)s1 | 2.92 | 6.07 |  | 
2 | NS(=O)(=O)c1nnc(NC(=O)CC23CC4CC(CC(C4)C2)C3)s1 | 2.85 | 6.47 |  | 
3 | NS(=O)(=O)c1ccc(NC(=O)CC23CC4CC(CC(C4)C2)C3)cc1 | < 2.00 |  | 8.03 | 7.25
4 | NS(=O)(=O)c1ccc(NC(=O)C23CC4CC(CC(C4)C2)C3)cc1 | < 2.00 |  | 8.15 | 7.29
